Measured values from US10905757B2, “Cross-reactive T cell epitopes of HIV, SIV, and FIV for vaccines in humans and cats” (priority 2012, dated 2021).
“Also recorded” adds a separate entry of the source. Marks after values point to notes of the source that are not given here. Ends that are not written are not given here.

Key:
Format in all cases: cell-based, human
[1] = system: CD3+CD8+ T cells from HIV+ subjects; assay: CFSE-proliferation, CD3+CD8+ T cells from HIV+ subjects; conditions: for CD8^+ T Proliferation (positive/total): positive responses over total tested, F3 responders (H3 responders for H3-3)
Protocol: (§1) 2×10^5-5×10^5 CFSE labeled PBMCs were incubated with 15-20 μg of peptides in 600 μL of RPMI media with 10% FBS for 5 days at 37° C. (5% CO2). After harvesting, they were labeled with allophycocyanin (APC), APC-H7, and Pacific Blue labeled monoclonal antibodies (MAb) to human CD3, CD4, and CD8, respectively and analyzed for T-cell proliferation by flow cytometry using BD LSRII (BD Biosciences). The proliferating CD4^+ or CD8^+ T cell populations were defined from the CD3^+ cell population as either CD3^+CD8^+ or CD3^+CD4^+T cells (mutually exclusive) with low CFSE (CFSE^low) staining.
(§2) Flow cytometry (FACS) for carboxyfluoresein diacetate succinimide ester (CFSE)-proliferation and intracellular cytotoxin staining (ICS). The CFSE-proliferation analysis was performed on PBMC according to the manufacturer's protocol (Invitrogen, Carlsbad, Calif.) and processed as previously described (Lichterfeld et al. (2004)). Modifications consisted of using 2.0-5.0×10^5 CFSE-labeled cells stimulated for 5 days (37° C., 5% CO^2) with 30 μg/well of total peptides in a pool (15 μg/well for individual peptide, Table 10) or 5 μg/mL PHA in AIM V medium containing 25 μg/mL of gentamycin and 10% heat-inactivated human serum. Subsequently these cells were harvested and labeled with the LIVE/DEAD fixable yellow dye (Invitrogen) and then treated 5 min with anti-CD16/CD32 antibody (Biolegend, San Diego, Calif.) for blocking non-specific binding before phenotype-specific antibodies. The following antibodies were used for the CFSE-proliferation analysis: anti-CD4 APC, anti-CD3 APC-H7, and anti-CD8 Pacific Blue (BD Biosciences, San Jose, Calif.).
(§3) In both analyses, 1.0-2.0×10^4 cells were fixed in phosphate-buffered saline (PBS) containing 2% paraformaldehyde and analyzed on BD LSRII using […] Software (BD Biosciences), with a positive threshold of 3% CFSE^low for CFSE-proliferation and 1% T cells expressing cytotoxin for ICS. The final value for each subject was derived after subtraction of the subject's medium control and the average value of peptide-stimulated cells from uninfected control subjects.
(§4) Flow cytometry (FACS) for measuring CFSE-proliferation and intracellular cytokine staining (ICS). Carboxyfluorescein diacetate succinimide ester (CFSE)-proliferation analysis was performed according to the manufacturer's protocol (Invitrogen) and processed as previously described (Lichterfeld et al. 2004) using the following modification: 2.5-5.0×10^5 CFSE-labeled PBMC stimulated for 4-5 days (37° C., 5% CO2) with 15-30 μg of peptides in culture media (AIM V medium, 25 μg/mL gentamycin, and 10% heat-inactivated fetal bovine serum). The ICS analysis was performed as previously described (Horton et al. 2007; Pattacini et al. 2012).
(§5) The antibodies used for the proliferation analysis consisted of anti-CD4 allophycocyanin (APC) anti-CD3 APC-H7, and anti-CD8 Pacific Blue, and those for ICS were anti-CD3 APC-H7, anti-CD4 BD Horizon V450, anti-CD8 FITC, anti-granzyme B (GrzB) Alexa 700, anti-granzyme A (GrzA) PE (BD Biosciences, Cat #555349, 560176, 558207, 560345, 555366, 560213, 558904), and anti-perforin PerCP (Abcam, Cat #ab86319). Both analyses were performed with BD LSRII and […]™ Software (BD Biosciences), using a positive threshold of >1% CFSE^low for CFSE-proliferation except for ICS studies with threshold of >0.1% T cells expressing cytotoxin. The final value for each subject was derived after subtracting the result of each HIV^+ subject with the media control followed by subtraction with the average response of the media-control subtracted HIV^− subjects.

[2] = system: PBMC from HIV+ subjects; assay: IFNγ ELISpot, PBMC from HIV+ subjects; conditions: for IFNγ (positive/total): positive responses over total tested, F3 responders (H3 responders for H3-3)
Protocol: 1.0×10^5-2.0×10^5 PBMCs were stimulated with peptides (15 μg peptide/well) in ELISpot plates for 18 hours in AIMS V medium (at 10% normal human serum). The spots were counted with an ELISpot reader and adjusted to spot forming units (SFU) per 10^6 cells.
Positive reactivity was defined at ≥70 SFU/10^6 cells after subtracting the background derived from non-specific peptide control or media control, and the average of 3 HIV-1 negative controls (<30 SFU/10^6 cells).
ELISpot assays. Enzyme-linked immunosorbent spot assays (ELISpot) for IFNγ (R&D Systems, Minneapolis, Minn.) were performed with AIM V medium containing 5% heat-inactivated (56° C., 30 min) human serum as previously described (Abbott et al. (2012)). The PBMC from HIV+ subjects were stimulated with either peptide pool (4-5 consecutive peptides per pool at 5 μg per peptide) or individual peptide (15 μg/well). The peptides were 11-16 aa in length with 8-10 aa overlap. The results were analyzed with an ELISpot reader (MVS Pacific LLC, Minneapolis, Minn.) and adjusted to spot forming units (SFU) per 10^6 cells, after subtraction of the average medium control for each subject. The PBMC from HIV+ subjects were stimulated with T-cell mitogen, phytohemaglutinin A (PHA, 5 μg/mL), as positive control. At a positive threshold of 70 SFU, HIV− subjects had no substantial IFNγ responses (>50 SFU) to HIV and FIV peptide pools.
ELISpot assays. Human enzyme-linked immunosorbent spot assays (ELISpot) (R&D Systems, Cat #XEL285) which measure IFNγ production were performed (Abbott et al. 2011). The positive threshold for human IFNγ responses was >50 spot forming units (SFU)/10^6 cells. The final value for each subject was derived after subtracting the result of each HIV^+ subject with the media control followed by subtraction with the average response of the HIV^− subjects which was rarely more than 10 SFU.

[3] = system: CD4+ or CD8+ T cells from HIV+ subjects; assay: Intracellular cytotoxin staining (ICS), CD4+ or CD8+ T cells from HIV+ responders; conditions: for cytotoxin and CD107a expression in CD4+ and CD8+ T cells (in words): p24 peptides
Protocol: Briefly, 1×10^6PBMCs (freshly isolated) are stimulated with 20 μg of peptides for 6 hours in a total volume of 200 μL in a 96-well plate in presence of Golgi transport inhibitor (37° C., 5% CO2). […] Cells were stained with the LIVE/DEAD® fixable yellow dye (Invitrogen, Eugene, Oreg.). […] The flow cytometry data is collected using BD LSRII and analyzed with the FACS DIVA software.
The cells were subsequently fixed and permeabilized with Cytofix/Cytoperm solution (BD Biosciences) before reaction with anti-cytotoxin antibodies. The antibodies consisted of anti-CD3 APC-H7, anti-CD4 BD Horizon V450, and anti-CD8 FITC followed by anti-GrzB Alexa 700 and anti-GrzA PE (all from BD Biosciences), and anti-perforin PerCP (Abcam, Boston, Mass.).
as §3
Flow cytometry (FACS) for measuring CFSE-proliferation and intracellular cytokine staining (ICS).
Both analyses were performed with BD LSRII and […]™ Software (BD Biosciences), using a positive threshold of >1% CFSE^low for CFSE-proliferation except for ICS studies with threshold of >0.1% T cells expressing cytotoxin.

[4] = system: CD3+CD4+ T cells from HIV+ subjects; assay: CFSE-proliferation, CD3+CD4+ T cells from HIV+ subjects
Protocol: as §1, §2, §3, §4, §5

[5] = system: CD4+ T cells from HIV+ subjects; assay: Intracellular cytotoxin staining (ICS), CD4+ T cells from HIV+ subjects; design: key to CD4^+ T-cell cytotoxins (4C): positive (+); negative (−) response; inhibitory (↓); not done (n); conditions: HIV^+ subjects compared to HIV^− control group
Protocol: (§6) Briefly, 1×10^6PBMCs (freshly isolated) are stimulated with 20 μg of peptides for 6 hours in a total volume of 200 μL in a 96-well plate in presence of Golgi transport inhibitor (37° C., 5% CO2). The cells are processed as previously described (Horton et al. (2007)). Cells were stained with the LIVE/DEAD® fixable yellow dye (Invitrogen, Eugene, Oreg.). The monoclonal antibodies fluorochome-conjugated to human cytokines used are: APC-H7 to CD3 (clone SK7); BD Horizon V450 to CD4 (clone RPA-T4); Qdot to CD8 (clone 3B5); PE-cy7 to IFN-γ (clone 4S.B3); APC to IL-2 (clone MQ1-17H12) PerCP to perforin (clone B-D48); Alexa F1.700 to granzyme-B (clone GB11) and PE to granzyme-A (clone CB9). The flow cytometry data is collected using BD LSRII and analyzed with the FACS DIVA software.
(§7) The ICS analysis (Horton et al. (2007)) involved stimulating 0.5-1.0×10^6 freshly isolated PBMC for 6 h with the same peptide stimulant and culture conditions as the proliferation analysis in the presence of 1 μg/mL of Golgi transport inhibitor and monensin followed by labeling with LIVE/DEAD fixable yellow dye and then treatment with anti-CD16/CD32 antibody and T-cell phenotypic antibodies. The cells were subsequently fixed and permeabilized with Cytofix/Cytoperm solution (BD Biosciences) before reaction with anti-cytotoxin antibodies. The antibodies consisted of anti-CD3 APC-H7, anti-CD4 BD Horizon V450, and anti-CD8 FITC followed by anti-GrzB Alexa 700 and anti-GrzA PE (all from BD Biosciences), and anti-perforin PerCP (Abcam, Boston, Mass.).
as §3, §4, §5

[6] = system: CD8+ T cells from HIV+ subjects; assay: Intracellular cytotoxin staining (ICS: perforin, GrzA, GrzB, CD107a), CD8+ T cells from HIV+ subjects; design: key to CD8^+ T-cell cytotoxins (8C): positive (+); negative (−) response; inhibitory (↓); not done (n); conditions: for CD8^+ T-cell cytotoxins (8C): HIV^+ subjects compared to HIV^− control group; for HIV+ subjects whose CD8+ T cells responded with one or more cytotoxins: five HIV+ subjects, individual 13-15mer peptides
Protocol: as §6, §7, §3, §4, §5

[7] = average positive values, responders to Fp9 or Fp14 peptide pools
[8] = responders to Fp9 or Fp14 peptide pools
[9] = responders/tested, small 9-13mer peptides, yr 4, responders to Fp9 or Fp14 pool via both proliferation and IFNγ
[10] = small 9-13mer peptides, yr 4, responders to Fp9 or Fp14 pool via both proliferation and IFNγ

Substance: FIV 3-3 (WV9) (WRMLIDFRV)
- CD8^+ T Proliferation (positive/total) [1]: 1/6
- IFNγ (positive/total) [2]: 8/11

Substance: CAEV & MVV (KKKSGKWRMLIDFRE)
- CD8^+ T Proliferation (positive/total) [1]: 0/5
- IFNγ (positive/total) [2]: 1/9

Substance: KLYLKQSLSI [Fp14-3/4f]
- (magnitude) CD8 Proliferation [1, 7]: high (high when >30 CSFE)
- CD8+ T-cell proliferation response of HIV+ subjects (in words) ([1]; p24 pools and peptides): high
- Responder Frequency in %, CD8 Proliferation [1, 8]: 100%
- CD8^+ T-cell Responder Frequency [1, 9]: 10/10
- CD8^+ T-cell Responder Frequency (%) [1, 10]: (100) ^d %
- cytotoxin and CD107a expression in CD4+ and CD8+ T cells (in words) [3]: high frequency of cytotoxin expression; also recorded: high cytotoxin and CD107a expression
- Cytotoxins [3, 8]: High Cytotoxins (The cytotoxin result is considered high when four or five subjects express one or more cytotoxins in the CD8^+ T cells)
- CD4+ T-cell proliferation response of HIV+ subjects (in words) [4]: high
- (magnitude) CD4 Proliferation [4, 7]: low (The average positive values are considered low when the frequency of response is <15% CFSE)
- Responder Frequency in %, CD4 Proliferation [4, 8]: 60%
- CD4^+ T-cell Responder Frequency [4, 9]: 6/10
- CD4^+ T-cell Responder Frequency (%) [4, 10]: (60) ^d %
- (magnitude) IFNγ [2, 7]: low (low when the frequency of response is <15% CFSE or <125 SFU)
- IFNγ response of HIV+ subjects (in words) ([2]; p24 pools and peptides): low
- Responder Frequency in %, IFNγ [2, 8]: 40%

Substance: ASQEVKNWMTETLLV [Hp15-2]
- CD4^+ T-cell cytotoxins (4C) [5]: +
- CD8^+ T-cell cytotoxins (8C) [6]: +

Substance: EQNTAEVKLYLKQSL [Fp14-2]
- CD4^+ T-cell cytotoxins (4C) [5]: +
- CD8^+ T-cell cytotoxins (8C) [6]: +

Substance: FIV F3-3m1 (KKKDSGKWRMLIDFR)
- CD8^+ T Proliferation (positive/total) [1]: 1/5
- IFNγ (positive/total) [2]: 0/9

Substance: AEVKLYLKQSLSIA [Fp14-3]
- CD4^+ T-cell cytotoxins (4C) [5]: +
- cytotoxin expression / CTL-associated activity in CD8+ T cells (in words) [6]: highest frequency and levels
- CD8^+ T-cell cytotoxins (8C) [6]: +
- HIV+ subjects whose CD8+ T cells responded with one or more cytotoxins [6]: five

Substance: KLYLKQSLSIANA [Fp14-4]
- cytotoxin and CD107a expression in CD4+ and CD8+ T cells (in words) [3]: high frequency of cytotoxin expression
- CD4^+ T-cell cytotoxins (4C) [5]: +
- cytotoxin expression / CTL-associated activity in CD8+ T cells (in words) [6]: highest frequency and levels
- CD8^+ T-cell cytotoxins (8C) [6]: +
- HIV+ subjects whose CD8+ T cells responded with one or more cytotoxins [6]: five

Substance: FIV F3-3m4 (KKKSTKWRKLIDFRV)
- CD8^+ T Proliferation (positive/total) [1]: 0/5
- IFNγ (positive/total) [2]: 0/9
